Test results published in article PMC5564600 (Oncotarget, 2017).

Legend:
Test in all cases: biochemical
Type in all cases: binding
panel of 442 kinases [1] = target: T1, panel of 442 kinases (Homo sapiens, UniProt Q15303); details: ERBB4; for remaining activity at 1 µM: read-out: % of control at 1 µM
T1 construct: purchased Ambit Biosciences (scanMAXX KINOMEscan)

panel of 442 kinases [2] = target: T2, panel of 442 kinases (Homo sapiens, UniProt P10721, T670I/V559D); details: kinase KIT(V559D,T670I); for remaining activity at 1 µM: read-out: % of control at 1 µM
T2 construct: purchased Ambit Biosciences (scanMAXX KINOMEscan)

panel of 442 kinases [3] = target: T3, panel of 442 kinases (Homo sapiens, UniProt Q92918); details: kinase HPK1; for remaining activity at 1 µM: read-out: % of control at 1 µM
T3 construct: purchased Ambit Biosciences (scanMAXX KINOMEscan)

panel of 442 kinases [4] = target: T4, panel of 442 kinases (Homo sapiens, UniProt Q99755); details: kinase PIP5K1A; for remaining activity at 1 µM: read-out: % of control at 1 µM
T4 construct: purchased Ambit Biosciences (scanMAXX KINOMEscan)

panel of 442 kinases [5] = target: T5, panel of 442 kinases (Homo sapiens, UniProt P08581, Y1235D); details: kinase MET(Y1235D); for remaining activity at 1 µM: read-out: % of control at 1 µM
T5 construct: purchased Ambit Biosciences (scanMAXX KINOMEscan)

panel of 442 kinases [6] = target: T6, panel of 442 kinases (Homo sapiens, UniProt O75385); details: kinase ULK1; for remaining activity at 1 µM: read-out: ULK1 (% of control at 1 µM)
T6 construct: purchased Ambit Biosciences (scanMAXX KINOMEscan)
T6 sequence (O75385 1-1050): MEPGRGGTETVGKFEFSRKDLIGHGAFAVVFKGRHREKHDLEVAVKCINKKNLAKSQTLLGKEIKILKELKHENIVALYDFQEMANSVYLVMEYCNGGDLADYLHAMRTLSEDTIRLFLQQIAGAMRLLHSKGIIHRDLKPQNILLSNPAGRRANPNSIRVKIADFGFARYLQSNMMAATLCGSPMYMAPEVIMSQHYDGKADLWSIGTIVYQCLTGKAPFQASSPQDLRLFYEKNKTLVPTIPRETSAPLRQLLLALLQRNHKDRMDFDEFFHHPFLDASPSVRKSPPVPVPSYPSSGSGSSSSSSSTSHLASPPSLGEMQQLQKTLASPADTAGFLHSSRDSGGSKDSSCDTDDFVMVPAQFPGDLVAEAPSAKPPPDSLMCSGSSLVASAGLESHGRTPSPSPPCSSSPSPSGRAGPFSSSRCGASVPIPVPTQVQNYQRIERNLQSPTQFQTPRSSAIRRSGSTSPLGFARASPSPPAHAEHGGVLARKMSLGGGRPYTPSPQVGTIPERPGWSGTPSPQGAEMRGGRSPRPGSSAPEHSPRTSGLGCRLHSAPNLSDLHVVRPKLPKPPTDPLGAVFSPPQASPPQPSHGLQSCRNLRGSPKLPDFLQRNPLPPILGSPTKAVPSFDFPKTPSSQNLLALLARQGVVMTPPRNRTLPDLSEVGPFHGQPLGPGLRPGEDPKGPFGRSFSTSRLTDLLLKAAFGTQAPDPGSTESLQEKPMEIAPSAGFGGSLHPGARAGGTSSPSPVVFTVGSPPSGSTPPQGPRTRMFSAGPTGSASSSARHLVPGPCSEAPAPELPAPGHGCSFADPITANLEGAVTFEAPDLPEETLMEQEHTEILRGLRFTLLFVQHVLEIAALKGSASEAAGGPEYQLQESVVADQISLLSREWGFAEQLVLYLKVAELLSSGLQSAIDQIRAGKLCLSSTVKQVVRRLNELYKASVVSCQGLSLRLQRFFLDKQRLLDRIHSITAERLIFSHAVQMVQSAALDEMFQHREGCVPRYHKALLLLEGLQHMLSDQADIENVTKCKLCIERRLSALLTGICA

panel of 442 kinases [7] = target: T7, panel of 442 kinases (Homo sapiens, UniProt Q13188); details: kinase MST2; for remaining activity at 1 µM: read-out: % of control at 1 µM
T7 construct: purchased Ambit Biosciences (scanMAXX KINOMEscan)
T7 sequence (Q13188 1-491): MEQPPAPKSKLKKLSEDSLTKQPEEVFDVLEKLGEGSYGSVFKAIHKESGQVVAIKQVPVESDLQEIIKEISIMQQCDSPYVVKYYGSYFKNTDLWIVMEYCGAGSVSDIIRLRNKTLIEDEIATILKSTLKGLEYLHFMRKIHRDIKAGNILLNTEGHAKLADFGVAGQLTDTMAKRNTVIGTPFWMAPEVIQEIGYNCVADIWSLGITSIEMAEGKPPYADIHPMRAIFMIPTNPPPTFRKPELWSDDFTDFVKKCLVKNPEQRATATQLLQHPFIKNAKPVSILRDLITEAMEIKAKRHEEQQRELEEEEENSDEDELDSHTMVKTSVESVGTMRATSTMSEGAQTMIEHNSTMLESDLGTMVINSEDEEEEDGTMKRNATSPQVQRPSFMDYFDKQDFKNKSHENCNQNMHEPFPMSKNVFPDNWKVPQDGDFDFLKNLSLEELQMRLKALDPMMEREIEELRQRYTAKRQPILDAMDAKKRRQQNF

panel of 442 kinases [8] = target: T8, panel of 442 kinases (Homo sapiens, UniProt O94768); details: DRAK2; for remaining activity at 1 µM: read-out: % of control at 1 µM
T8 construct: purchased Ambit Biosciences (scanMAXX KINOMEscan)
T8 sequence (O94768 1-372): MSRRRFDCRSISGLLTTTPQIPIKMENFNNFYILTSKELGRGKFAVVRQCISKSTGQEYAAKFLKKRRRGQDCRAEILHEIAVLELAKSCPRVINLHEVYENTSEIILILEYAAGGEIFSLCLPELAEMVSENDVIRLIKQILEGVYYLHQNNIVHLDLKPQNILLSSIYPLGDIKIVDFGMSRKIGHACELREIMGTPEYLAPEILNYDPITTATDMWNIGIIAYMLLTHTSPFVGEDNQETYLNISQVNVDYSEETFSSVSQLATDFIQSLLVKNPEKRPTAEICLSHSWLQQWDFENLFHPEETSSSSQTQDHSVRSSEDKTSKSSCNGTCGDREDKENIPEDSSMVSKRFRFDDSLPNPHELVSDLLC

panel of 442 kinases [9] = target: T9, panel of 442 kinases (Homo sapiens, UniProt P51812); details: kinase RSK2(Kin.Dom.1-N-terminal); for remaining activity at 1 µM: read-out: RSK2(Kin.Dom.1-N-terminal) (% of control at 1 µM)
T9 construct: purchased Ambit Biosciences (scanMAXX KINOMEscan)

panel of 442 kinases [10] = target: T10, panel of 442 kinases (Homo sapiens, UniProt Q05655); details: kinase PRKCD; for remaining activity at 1 µM: read-out: PRKCD (% of control at 1 µM)
T10 construct: purchased Ambit Biosciences (scanMAXX KINOMEscan)

panel of 442 kinases [11] = target: T11, panel of 442 kinases (Homo sapiens, UniProt P49336); details: CDK8; for remaining activity at 1 µM: read-out: % of control at 1 µM
T11 construct: purchased Ambit Biosciences (scanMAXX KINOMEscan)

[12] = 10 µM, read-out: % of control at 10 µM

T1 sequence (Q15303 26-1308): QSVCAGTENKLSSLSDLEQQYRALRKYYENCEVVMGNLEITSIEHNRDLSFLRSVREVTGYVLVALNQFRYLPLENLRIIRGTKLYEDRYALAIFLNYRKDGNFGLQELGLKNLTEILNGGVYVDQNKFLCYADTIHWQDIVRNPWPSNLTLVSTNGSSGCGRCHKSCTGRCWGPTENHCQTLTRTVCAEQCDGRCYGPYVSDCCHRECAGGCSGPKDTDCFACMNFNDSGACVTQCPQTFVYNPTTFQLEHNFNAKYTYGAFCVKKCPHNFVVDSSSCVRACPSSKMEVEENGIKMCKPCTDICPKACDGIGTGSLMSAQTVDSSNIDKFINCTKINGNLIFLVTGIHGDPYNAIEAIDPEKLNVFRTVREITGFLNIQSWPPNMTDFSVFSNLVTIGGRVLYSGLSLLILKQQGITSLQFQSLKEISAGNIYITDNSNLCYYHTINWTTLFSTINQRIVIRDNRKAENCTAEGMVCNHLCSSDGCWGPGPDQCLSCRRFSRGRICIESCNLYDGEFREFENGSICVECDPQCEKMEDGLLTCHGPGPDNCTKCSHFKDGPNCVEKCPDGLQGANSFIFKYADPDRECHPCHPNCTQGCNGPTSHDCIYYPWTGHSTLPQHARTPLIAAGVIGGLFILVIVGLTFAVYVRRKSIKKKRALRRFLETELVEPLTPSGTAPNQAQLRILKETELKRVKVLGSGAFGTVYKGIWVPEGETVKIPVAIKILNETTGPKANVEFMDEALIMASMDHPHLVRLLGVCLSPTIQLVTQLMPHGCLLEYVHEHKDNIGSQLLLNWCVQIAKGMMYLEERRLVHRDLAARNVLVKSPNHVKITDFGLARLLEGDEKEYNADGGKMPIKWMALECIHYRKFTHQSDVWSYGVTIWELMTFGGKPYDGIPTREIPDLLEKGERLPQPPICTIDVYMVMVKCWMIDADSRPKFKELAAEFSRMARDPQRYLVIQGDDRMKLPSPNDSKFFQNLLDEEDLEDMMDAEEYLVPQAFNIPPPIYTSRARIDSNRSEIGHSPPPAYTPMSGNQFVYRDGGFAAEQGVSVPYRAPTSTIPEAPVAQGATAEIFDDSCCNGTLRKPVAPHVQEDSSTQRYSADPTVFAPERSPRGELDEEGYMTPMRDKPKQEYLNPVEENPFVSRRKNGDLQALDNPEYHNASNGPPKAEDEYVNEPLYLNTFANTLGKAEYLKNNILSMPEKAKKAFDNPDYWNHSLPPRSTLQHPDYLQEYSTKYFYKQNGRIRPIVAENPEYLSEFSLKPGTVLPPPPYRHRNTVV
T2 sequence (P10721 26-976 V559D/T670I): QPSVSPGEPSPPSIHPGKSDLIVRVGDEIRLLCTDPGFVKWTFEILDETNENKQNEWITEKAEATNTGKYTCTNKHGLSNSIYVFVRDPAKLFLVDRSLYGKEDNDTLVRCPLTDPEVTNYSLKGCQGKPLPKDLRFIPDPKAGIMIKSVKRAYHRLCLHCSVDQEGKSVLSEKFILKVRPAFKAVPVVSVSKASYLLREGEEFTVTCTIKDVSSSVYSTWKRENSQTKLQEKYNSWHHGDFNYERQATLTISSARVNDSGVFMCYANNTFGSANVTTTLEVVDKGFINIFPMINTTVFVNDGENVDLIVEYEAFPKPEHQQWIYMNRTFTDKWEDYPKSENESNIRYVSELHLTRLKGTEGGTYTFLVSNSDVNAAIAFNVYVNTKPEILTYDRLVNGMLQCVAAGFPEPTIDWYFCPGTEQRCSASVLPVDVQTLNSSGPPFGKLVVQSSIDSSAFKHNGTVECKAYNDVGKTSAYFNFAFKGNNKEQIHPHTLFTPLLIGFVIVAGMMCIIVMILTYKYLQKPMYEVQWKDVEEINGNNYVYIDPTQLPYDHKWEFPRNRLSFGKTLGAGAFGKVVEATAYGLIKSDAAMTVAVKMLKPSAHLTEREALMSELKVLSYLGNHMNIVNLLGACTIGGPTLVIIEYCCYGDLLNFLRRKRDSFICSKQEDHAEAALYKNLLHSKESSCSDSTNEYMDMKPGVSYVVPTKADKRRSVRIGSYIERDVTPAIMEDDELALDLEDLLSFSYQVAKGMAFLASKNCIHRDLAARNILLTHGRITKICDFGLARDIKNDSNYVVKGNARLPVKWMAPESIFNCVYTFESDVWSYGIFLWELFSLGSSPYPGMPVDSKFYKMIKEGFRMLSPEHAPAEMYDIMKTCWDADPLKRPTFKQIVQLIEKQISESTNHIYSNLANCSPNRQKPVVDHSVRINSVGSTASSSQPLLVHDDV
T10 sequence (Q05655 whole entry): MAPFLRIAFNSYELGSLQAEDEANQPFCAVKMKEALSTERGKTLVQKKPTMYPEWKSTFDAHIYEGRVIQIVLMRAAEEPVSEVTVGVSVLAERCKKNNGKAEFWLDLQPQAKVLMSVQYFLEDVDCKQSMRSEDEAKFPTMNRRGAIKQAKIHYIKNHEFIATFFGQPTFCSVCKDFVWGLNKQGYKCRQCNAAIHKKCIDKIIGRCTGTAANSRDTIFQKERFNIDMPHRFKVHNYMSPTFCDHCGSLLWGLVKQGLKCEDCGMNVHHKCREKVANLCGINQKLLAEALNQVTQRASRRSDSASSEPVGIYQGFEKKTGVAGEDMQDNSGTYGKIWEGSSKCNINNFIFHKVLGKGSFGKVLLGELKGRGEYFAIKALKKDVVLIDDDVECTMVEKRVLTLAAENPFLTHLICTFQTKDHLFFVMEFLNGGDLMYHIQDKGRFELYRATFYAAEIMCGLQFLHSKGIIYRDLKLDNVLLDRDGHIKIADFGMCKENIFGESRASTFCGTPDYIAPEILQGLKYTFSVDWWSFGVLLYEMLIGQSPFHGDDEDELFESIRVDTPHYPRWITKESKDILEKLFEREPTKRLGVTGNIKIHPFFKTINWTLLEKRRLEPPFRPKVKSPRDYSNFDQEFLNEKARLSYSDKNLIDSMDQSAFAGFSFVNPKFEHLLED
T4 sequence (Q99755 whole entry): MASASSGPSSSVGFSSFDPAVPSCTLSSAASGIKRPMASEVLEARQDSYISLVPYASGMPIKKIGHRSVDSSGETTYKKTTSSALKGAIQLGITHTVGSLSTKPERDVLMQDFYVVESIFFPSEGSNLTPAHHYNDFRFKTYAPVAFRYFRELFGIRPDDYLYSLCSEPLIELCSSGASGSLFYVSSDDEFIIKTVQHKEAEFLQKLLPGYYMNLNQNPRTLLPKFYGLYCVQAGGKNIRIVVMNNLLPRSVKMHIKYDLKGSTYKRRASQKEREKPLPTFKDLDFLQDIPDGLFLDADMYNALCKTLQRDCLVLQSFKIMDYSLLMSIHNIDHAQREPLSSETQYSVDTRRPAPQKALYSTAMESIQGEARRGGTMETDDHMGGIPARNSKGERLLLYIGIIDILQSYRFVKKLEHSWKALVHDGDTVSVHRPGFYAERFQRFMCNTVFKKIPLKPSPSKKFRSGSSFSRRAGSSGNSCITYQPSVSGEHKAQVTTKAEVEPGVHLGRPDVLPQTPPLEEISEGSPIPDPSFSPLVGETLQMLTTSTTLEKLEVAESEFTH
T11 sequence (P49336 whole entry): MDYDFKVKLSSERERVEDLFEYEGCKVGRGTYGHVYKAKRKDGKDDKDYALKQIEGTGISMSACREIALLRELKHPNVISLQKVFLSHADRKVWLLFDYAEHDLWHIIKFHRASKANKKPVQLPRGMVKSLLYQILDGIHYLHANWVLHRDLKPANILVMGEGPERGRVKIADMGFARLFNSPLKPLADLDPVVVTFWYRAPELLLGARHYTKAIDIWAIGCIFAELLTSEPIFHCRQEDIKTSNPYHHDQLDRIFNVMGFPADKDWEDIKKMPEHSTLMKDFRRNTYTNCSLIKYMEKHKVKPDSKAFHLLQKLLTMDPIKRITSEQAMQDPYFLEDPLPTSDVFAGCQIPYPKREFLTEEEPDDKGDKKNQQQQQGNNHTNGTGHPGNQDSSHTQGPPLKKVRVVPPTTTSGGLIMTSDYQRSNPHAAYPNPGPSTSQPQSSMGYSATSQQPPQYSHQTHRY
T3 sequence (Q92918 whole entry): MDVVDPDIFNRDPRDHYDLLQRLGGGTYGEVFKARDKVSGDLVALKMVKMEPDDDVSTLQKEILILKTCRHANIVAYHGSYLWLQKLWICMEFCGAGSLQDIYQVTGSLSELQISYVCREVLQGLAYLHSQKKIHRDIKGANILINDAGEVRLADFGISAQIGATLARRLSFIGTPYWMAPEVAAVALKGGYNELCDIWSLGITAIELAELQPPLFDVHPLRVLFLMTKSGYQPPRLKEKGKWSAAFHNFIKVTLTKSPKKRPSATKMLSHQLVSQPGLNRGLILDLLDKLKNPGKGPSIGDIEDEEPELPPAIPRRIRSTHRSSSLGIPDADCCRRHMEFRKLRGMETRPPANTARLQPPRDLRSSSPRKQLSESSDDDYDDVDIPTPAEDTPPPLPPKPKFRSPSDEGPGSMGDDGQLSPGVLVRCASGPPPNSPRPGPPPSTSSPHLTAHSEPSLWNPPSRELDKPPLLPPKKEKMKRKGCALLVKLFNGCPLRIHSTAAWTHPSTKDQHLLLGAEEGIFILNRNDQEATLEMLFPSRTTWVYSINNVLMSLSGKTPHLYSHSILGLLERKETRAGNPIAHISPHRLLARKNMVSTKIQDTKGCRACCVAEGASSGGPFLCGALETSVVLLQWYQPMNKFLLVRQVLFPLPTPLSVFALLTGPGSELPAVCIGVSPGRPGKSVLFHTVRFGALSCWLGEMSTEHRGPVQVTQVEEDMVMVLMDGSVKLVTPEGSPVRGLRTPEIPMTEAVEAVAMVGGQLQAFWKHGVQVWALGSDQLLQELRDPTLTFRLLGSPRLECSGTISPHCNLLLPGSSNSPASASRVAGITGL

SMILES: Nc1cc(C(F)(F)F)c(-c2cc(N3CCOCC3)nc(N3CCOCC3)n2)cn1 [Buparlisib]
- remaining activity at 1 µM (panel of 442 kinases [1]): 69%
- remaining activity at 10 µM (panel of 442 kinases [1]; [12]): 100%
- remaining activity at 1 µM (panel of 442 kinases [2]): 90%
- remaining activity at 10 µM (panel of 442 kinases [2]; [12]): 70%
- remaining activity at 1 µM (panel of 442 kinases [3]): 92%
- remaining activity at 10 µM (panel of 442 kinases [3]; [12]): 100%
- remaining activity at 1 µM (panel of 442 kinases [4]): 100%
- remaining activity at 10 µM (panel of 442 kinases [4]; [12]): 100%
- remaining activity at 1 µM (panel of 442 kinases [5]): 100%
- remaining activity at 10 µM (panel of 442 kinases [5]; [12]): 99%
- remaining activity at 1 µM (panel of 442 kinases [6]): 100%
- remaining activity at 10 µM (panel of 442 kinases [6]; 10 µM, read-out: ULK1 (% of control at 10 µM)): 100%
- remaining activity at 1 µM (panel of 442 kinases [7]): 89%
- remaining activity at 10 µM (panel of 442 kinases [7]; [12]): 84%
- remaining activity at 1 µM (panel of 442 kinases [8]): 100%
- remaining activity at 10 µM (panel of 442 kinases [8]; [12]): 100%
- remaining activity at 1 µM (panel of 442 kinases [9]): 99%
- remaining activity at 10 µM (panel of 442 kinases [9]; 10 µM, read-out: RSK2(Kin.Dom.1-N-terminal) (% of control at 10 µM)): 87%
- remaining activity at 1 µM (panel of 442 kinases [10]): 100%
- remaining activity at 10 µM (panel of 442 kinases [10]; 10 µM, read-out: PRKCD (% of control at 10 µM)): 100%
- remaining activity at 1 µM (panel of 442 kinases [11]): 100%
- remaining activity at 10 µM (panel of 442 kinases [11]; [12]): 100%

SMILES: Cn1c(=O)n(-c2ccc(C(C)(C)C#N)cc2)c2c3cc(-c4cnc5ccccc5c4)ccc3ncc21 [Dactolisib, 2-methyl-2-[4-(3-methyl-2-oxo-8-quinolin-3-yl-2,3-dihydroimidazo[4,5-c]quinolin-1-yl)-phenyl] propionitrile]
- remaining activity at 1 µM (panel of 442 kinases [1]): 100%
- remaining activity at 1 µM (panel of 442 kinases [2]): 64%
- remaining activity at 1 µM (panel of 442 kinases [3]): 64%
- remaining activity at 1 µM (panel of 442 kinases [4]): 59%
- remaining activity at 1 µM (panel of 442 kinases [6]): 88%
- remaining activity at 1 µM (panel of 442 kinases [7]): 43%
- remaining activity at 1 µM (panel of 442 kinases [8]): 68%
- remaining activity at 1 µM (panel of 442 kinases [10]): 86%
- remaining activity at 1 µM (panel of 442 kinases [11]): 100%

SMILES: COc1ncc(-c2ccc3nccc(-c4ccnnc4)c3c2)cc1NS(=O)(=O)c1ccc(F)cc1F [Omipalisib]
- remaining activity at 1 µM (panel of 442 kinases [1]): 100%
- remaining activity at 1 µM (panel of 442 kinases [2]): 100%
- remaining activity at 1 µM (panel of 442 kinases [3]): 100%
- remaining activity at 1 µM (panel of 442 kinases [4]): 100%
- remaining activity at 1 µM (panel of 442 kinases [5]): 100%
- remaining activity at 1 µM (panel of 442 kinases [6]): 99%
- remaining activity at 1 µM (panel of 442 kinases [7]): 53%
- remaining activity at 1 µM (panel of 442 kinases [8]): 100%
- remaining activity at 1 µM (panel of 442 kinases [9]): 62%
- remaining activity at 1 µM (panel of 442 kinases [10]): 74%
- remaining activity at 1 µM (panel of 442 kinases [11]): 70%

SMILES: FC(F)c1nc2ccccc2n1-c1nc(N2CCOCC2)nc(N2CCOCC2)n1 [ZSTK474, 2-(difluoromethyl)-1-[4,6-di(4-morpholinyl)-1,3,5-triazin-2-yl]-1H-benzimidazole]
- remaining activity at 1 µM (panel of 442 kinases [1]): 100%
- remaining activity at 1 µM (panel of 442 kinases [2]): 98%
- remaining activity at 1 µM (panel of 442 kinases [3]): 93%
- remaining activity at 1 µM (panel of 442 kinases [4]): 100%
- remaining activity at 1 µM (panel of 442 kinases [5]): 92%
- remaining activity at 1 µM (panel of 442 kinases [6]): 69%
- remaining activity at 1 µM (panel of 442 kinases [7]): 76%
- remaining activity at 1 µM (panel of 442 kinases [8]): 86%
- remaining activity at 1 µM (panel of 442 kinases [9]): 88%
- remaining activity at 1 µM (panel of 442 kinases [10]): 100%
- remaining activity at 1 µM (panel of 442 kinases [11]): 80%
